Source: ChEMBL document CHEMBL1201862, “PubChem BioAssay data set” (2004)
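Tested at 5 concentrations; 48 h exposure; 96-well plates; endpoints linearly interpolated, else capped at highest concentration. GI50 marks 50% less growth.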 The source made the active and inactive calls. No stated cut-off is given here; in the data, active = GI50 up to about 1.1 µM and inactive = higher.

Assays:
Test in all cases: inhibition of tumour cell growth, NCI panel, 48 h
MOLT-4 = test system: MOLT-4
HCT-116 = test system: HCT-116
SF-268 = test system: SF-268
HCC 2998 = test system: HCC 2998
RPMI-8226 = test system: RPMI-8226
NCI-H460 = test system: NCI-H460
A498 = test system: A498
SK-OV-3 = test system: SK-OV-3
SNB-75 = test system: SNB-75
Malme-3M = test system: Malme-3M
SNB-19 = test system: SNB-19
A549 = test system: A549
COLO 205 = test system: COLO 205
TK-10 = test system: TK-10
OVCAR-4 = test system: OVCAR-4
SK-MEL-28 = test system: SK-MEL-28
UACC-62 = test system: UACC-62
MDA-MB-231 = test system: MDA-MB-231
NCI/ADR-RES = test system: NCI/ADR-RES

Measured: GI50

O=C(c1ccc(Cl)cc1Cl)C1[C@H]2C(=O)N(c3ccc(Cc4ccc(N5C(=O)[C@@H]6ON(c7ccccc7)C(C(=O)c7ccc(Cl)cc7Cl)[C@@H]6C5=O)cc4)cc3)C(=O)[C@H]2ON1c1ccccc1 (some centres undefined)
inactive: MOLT-4 > 50 µM | HCT-116 > 50 µM | SF-268 > 50 µM | HCC 2998 > 50 µM | RPMI-8226 > 50 µM | NCI-H460 > 50 µM | A498 > 50 µM | SK-OV-3 > 50 µM | SNB-75 > 50 µM | Malme-3M > 50 µM | SNB-19 > 50 µM | A549 > 50 µM | COLO 205 > 50 µM | TK-10 > 50 µM | OVCAR-4 > 50 µM | SK-MEL-28 > 50 µM | UACC-62 > 50 µM

Brc1ccc(N2C[N+](c3ccc(Br)cc3)=NC(c3ccccc3)=N2)cc1
inactive: MOLT-4 14.2 µM | HCT-116 18.8 µM | SF-268 18.3 µM | HCC 2998 15.4 µM | RPMI-8226 9.35 µM | NCI-H460 13.6 µM | A498 18.3 µM | SK-OV-3 19.6 µM | SNB-75 26.1 µM | Malme-3M 16.7 µM | SNB-19 17.3 µM | A549 18.6 µM | COLO 205 19.1 µM | TK-10 19.5 µM | OVCAR-4 19.5 µM | SK-MEL-28 23 µM | UACC-62 14.8 µM

N#CC(C#N)=c1[nH]c2cccc3c2-c2c(cccc2c3=C(C#N)C#N)[nH]1
inactive: MOLT-4 > 100 µM | HCT-116 80.7 µM | SF-268 > 100 µM | HCC 2998 > 100 µM | RPMI-8226 > 100 µM | NCI-H460 > 100 µM | A498 > 100 µM | SK-OV-3 > 100 µM | SNB-75 53.1 µM | Malme-3M > 100 µM | SNB-19 > 100 µM | A549 > 100 µM | COLO 205 > 100 µM | TK-10 > 100 µM | OVCAR-4 > 100 µM | UACC-62 > 100 µM

NC(=O)C(=Cn1c(=S)[nH]c2ccc([N+](=O)[O-])cc21)C(N)=O
inactive: MOLT-4 > 100 µM | HCT-116 > 100 µM | SF-268 > 100 µM | HCC 2998 > 100 µM | NCI-H460 > 100 µM | A498 > 100 µM | SK-OV-3 > 100 µM | MDA-MB-231 > 100 µM | SNB-75 97.9 µM | SNB-19 > 100 µM | A549 > 100 µM | NCI/ADR-RES > 100 µM | COLO 205 > 100 µM | TK-10 > 100 µM | OVCAR-4 > 100 µM | SK-MEL-28 > 100 µM | UACC-62 > 100 µM

CC(=O)OCC1OC(N2C(=O)[C@@H](Oc3ccccc3)[C@H]2/C=C/c2ccccc2)C(OC(C)=O)C(OC(C)=O)C1OC(C)=O (some centres undefined)
inactive: MOLT-4 > 100 µM | HCT-116 > 100 µM | SF-268 72.4 µM | HCC 2998 > 100 µM | RPMI-8226 > 100 µM | NCI-H460 > 100 µM | A498 72.4 µM | SK-OV-3 > 100 µM | SNB-75 31.1 µM | Malme-3M > 100 µM | SNB-19 31.6 µM | A549 > 100 µM | COLO 205 > 100 µM | TK-10 > 100 µM | OVCAR-4 > 100 µM | SK-MEL-28 > 100 µM | UACC-62 > 100 µM

COC(=O)CC1C[C@H](C#N)N(C(=O)c2ccccc2)C[C@@H]1CC[N+](=O)[O-] (some centres undefined)
inactive: MOLT-4 > 100 µM | HCT-116 > 100 µM | SF-268 > 100 µM | HCC 2998 > 100 µM | RPMI-8226 > 100 µM | NCI-H460 > 100 µM | A498 > 100 µM | SK-OV-3 > 100 µM | SNB-75 > 100 µM | Malme-3M > 100 µM | SNB-19 > 100 µM | A549 > 100 µM | COLO 205 > 100 µM | TK-10 > 100 µM | OVCAR-4 > 100 µM | SK-MEL-28 > 100 µM | UACC-62 > 100 µM

COC(CN1C(=O)c2cccc3cccc(c23)C1=O)OC
inactive: MOLT-4 32.3 µM | HCT-116 46.2 µM | SF-268 > 100 µM | HCC 2998 > 100 µM | RPMI-8226 52.6 µM | NCI-H460 41.3 µM | A498 82.8 µM | SK-OV-3 > 100 µM | SNB-75 43.4 µM | Malme-3M > 100 µM | SNB-19 > 100 µM | A549 56.9 µM | COLO 205 > 100 µM | TK-10 74.3 µM | OVCAR-4 > 100 µM | SK-MEL-28 > 100 µM | UACC-62 73.1 µM

COc1ccc2[nH]c3c(C)cc([N+](=O)[O-])c(C)c3c2c1
inactive: MOLT-4 20.5 µM | HCT-116 17.9 µM | SF-268 37.3 µM | HCC 2998 25.4 µM | RPMI-8226 17.7 µM | NCI-H460 15.5 µM | A498 21.6 µM | SK-OV-3 28.2 µM | SNB-75 20.4 µM | Malme-3M 28.6 µM | SNB-19 37.8 µM | A549 25 µM | COLO 205 26.3 µM | TK-10 27.1 µM | OVCAR-4 33 µM | SK-MEL-28 24.7 µM
